Results reported in patent US5294618A, “Octahydrobenzisoquinoline derivatives as antipsychotic agents” (Merck Sharp & Dohme Limited, priority 1989, dated 1994).

How the values were obtained:
sigma sites = target: T1, sigma sites (Mus musculus, UniProt O55242); assay: Displacement of tritiated (+)-SKF 10047 sigma ligand in vivo; conditions: sc, s.c. dosing, read-out: effective dose for displacing 50% of ligand (ED50)
T1 construct: displace tritiated sigma ligands in vivo; from tissue; host or cells: sites in the living animal after s.c. dosing
Protocol: The ability of the test compounds to displace tritiated sigma ligands in vivo was determined by a modification of the method of Ferris et al., Life Sci., 1986, 38, 2329. In these experiments the sigma ligand used was tritiated (+)-SKF 10047.

[1] = system: N-methyl-D-aspartate (NMDA) ion-channel complex; conditions: cited from earlier work
sigma recognition site = conditions: cited from earlier work
dopamine D2 receptors = conditions: cited from earlier work
[2] = Indian J. Chem., Sect. B, 1979, 17, 239; cited from earlier work

T1 sequence (O55242 whole entry): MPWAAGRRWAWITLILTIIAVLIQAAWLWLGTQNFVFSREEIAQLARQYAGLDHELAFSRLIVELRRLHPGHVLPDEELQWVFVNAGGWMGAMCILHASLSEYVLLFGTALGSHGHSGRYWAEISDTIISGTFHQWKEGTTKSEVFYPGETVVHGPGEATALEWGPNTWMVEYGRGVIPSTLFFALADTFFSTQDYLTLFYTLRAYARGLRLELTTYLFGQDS

c1ccc2c(c1)CC[C@@H]1CN(C3CCCCC3)CC[C@@H]21 (relative stereo) [Example 4, trans-3-Cyclohexyl-1,2,3,4,4a,5,6,10b-octahydrobenz[f]isoquinoline]
ED50 (sigma sites): < 1 mg/kg

C=CCN1CCC2(C)c3cc(O)ccc3CC1C2C (stereo not drawn) [N-allylnormetazocine (SKF 10047), N-allylnormetazocine]
interaction with NMDA ion-channel complex [1]: interacts strongly
potency/affinity at sigma sites (sigma recognition site): having an affinity

C[C@@H]1CN(CCCn2c3ccccc3c3ccccc32)C[C@H](C)N1 [rimcazole]
potency/affinity at sigma sites (sigma recognition site): only moderate potency
activity at dopamine D2 receptors (dopamine D2 receptors): essentially inactive

O=C(CCCN1CCC2c3ccccc3CCC2C1)c1ccc(F)cc1 (stereo not drawn) [3-[3-(4-fluorobenzoyl)propyl]-1,2,3,4,4a,5,6,10b-octahydrobenz[f]isoquinoline]
CNS depressant activity [2]: weak CNS depressant activity
hypotensive activity [2]: significant hypotensive activity

O=C(CCCN1CCC(O)(c2ccc(Cl)cc2)CC1)c1ccc(F)cc1 [haloperidol]
relative potency at sigma sites versus D2 receptors (sigma recognition site; sigma sites and D2 receptors): equally potently

CCCCN1CC[C@H]2c3ccccc3CC[C@@H]2C1 (relative stereo) [Example 2, trans-3-Butyl-1,2,3,4,4a,5,6,10b-octahydrobenz[f]isoquinoline]
ED50 (sigma sites): < 1 mg/kg
